Measurements as given in PMC5751249, “Anti-Diabetic Effect of Organo-Chalcogen (Sulfur and Selenium) Zinc Complexes with Hydroxy-Pyrone Derivatives on Leptin-Deficient Type 2 Diabetes Model ob/ob Mice” (International Journal of Molecular Sciences, 2017).

How the values were obtained:
male ICR mice = system: male ICR mice; design: method as in doi:10.1248/jhs1956.39.4_289; conditions: six days per week, 30 days, cited from earlier work
[1] = system: type 2 diabetic ob/ob mice; assay: Daily oral treatment of ob/ob mice for 28 days: blood glucose, body weight, water intake; assay type: in vivo
Experimental: The anti-diabetic effects of both [Zn(hmpt)2] and [Zn(hmps)2] were examined in ob/ob mice. The ob/ob and +/+ mice were used as type 2 diabetic and normal (non-diabetic) mice, respectively. The ob/ob (10-week-old) and +/+ (10-week-old) mice received daily oral treatment of either Zn complexes dissolved in PEG-400 or PEG-400 only, respectively. The mice received oral treatments of [Zn(hmpt)2] or [Zn(hmps)2] at doses of 2.5–10 mg Zn/kg or 1.0–5.0 mg Zn/kg for 28 days, respectively. Blood glucose levels (BGL) were measured using a Glucocard (Arkray, Kyoto, Japan) just before treatment with the Zn complexes, and the doses were regulated based on the BGL. Over 28 days, BGL, body weight, food intake, and water intake were measured every day. The number of normal mice (+/+ mice), control mice (ob/ob mice), [Zn(hmpt)2]-treated, and [Zn(hmps)2]-treated mice was 6, 8, 8, and 8 in the initial animal experiments, respectively. This was modified to 6, 6, 7, and 8 after the end of experiments as two control mice died naturally by the end of experiments, and one [Zn(hmpt)2]-treated mouse died from an accident during the oral glucose tolerance test.

[2] = system: type 2 diabetic ob/ob mice; assay: Oral glucose tolerance test (OGTT) after 28 days treatment; assay type: in vivo
Experimental: After treatment with [Zn(hmpt)2] or [Zn(hmps)2] for 28 days, OGTTs were performed. The ob/ob mice and +/+ mice were fasted for 12-h and glucose (1 g/kg body weight) was given orally. Blood samples were obtained from the tail vein at 0, 15, 30, 45, 60, 90, and 120 min after glucose administration. Blood glucose concentrations were measured using a Glucocard.

[3] = system: type 2 diabetic ob/ob mice; assay type: in vivo
Experimental: (§1) After OGTT, HbA1c levels were measured in blood obtained from the mouse tail vein using an immunoassay with a DCA 2000 analyzer (Bayer-Sankyo Co., Ltd., Tokyo, Japan). The mice were subjected to a 12-h fast and blood samples were collected from the orbital vein or postcaval vein under isoflurane anesthesia using heparinized tools. Collected samples were then centrifuged at 650× g for 10 min at 4 °C, and the resultant plasma samples were used to analyze various biochemical parameters. The levels of AST, ALT, BUN, TG, T-CHO, and ALP in plasma samples were determined using a Fuji Dry Chem system. The plasma levels of insulin and adiponectin were determined using an ultra-sensitive Mouse Insulin ELISA Kit (Morinaga Institute of Biological Science, Inc., Kanagawa, Japan) and an adiponectin immunoassay kit (R&D Systems Inc., Minneapolis, MN, USA), respectively. After collecting the blood samples, mice were subjected to dissection under isoflurane anesthesia, and the resultant tissue samples were washed in saline. Each of the samples was dehydrated for a week in desiccators, weighed, and then heated in 5% HNO3 (5 mL) for 5 h at 110 °C in a closed system. The resultant solution was centrifuged at 1250× g for 15 min, and the supernatant was diluted using 5% HNO3. Both Zn and Se concentrations in organs were determined with an ICP-MS Agilent 7700x/Mass Hunter instrument (Agilent Technologies Inc., Santa Clara, CA, USA). The Zn and Se concentrations in each sample were calculated using linear regression of the standard curves prepared from standard solutions of the respective trace elements.

[4] = Organ distribution of Zn and Se by ICP-MS after 28 days oral treatment; assay type: in vivo, mice
Experimental: as §1

[5] = system: type 2 diabetic ob/ob mice; assay: Histopathology and morphometric analysis of pancreas and liver (HE staining); assay type: in vivo; conditions: 14-week-old mice
Experimental: Excised pancreas and liver from 14-week-old mice were immediately fixed in 10% buffered formalin for a week, sectioned at a thickness of 3 μm, and stained with HE for histopathological examination. HE-stained tissue sections were scanned using a Moticam T2 (Shimadzu Co., Kyoto, Japan) to prepare digital images. Both pancreatic islet area and glycogen and fat deposition areas were calculated with the dedicated image processing software WinROOF (Mitani Corp., Tokyo, Japan).

[6] = system: type 2 diabetic ob/ob mice; assay: Triglyceride and glycogen contents in the liver; assay type: in vivo; conditions: ob/ob mice after 28 days oral treatment
Experimental: Lipids in the liver were extracted according to modified Folch method. TG in the extracted lipids was detected using the triglyceride E test wako (Wako Pure Chemicals Co., Osaka, Japan). Glycogen in the liver was extracted with a strong base (30% KOH aq). Then, ethanol precipitation methods (using 95% ethanol and saturated Na2SO4), hydrolysis, and neutralization (with 2.4 M HCl aq and 0.8 M NaOH aq) of the glycogen extracts were performed, resulting in degradation to glucose solution. To detect the glucose levels in the solution using the glucose CII test wako (Wako Pure Chemicals Co., Osaka, Japan), glycogen levels in the liver were estimated. Because the liver sample of normal mice was used up during TG detection and ICP-MS analysis, glycogen content in the liver could not be detected.

[7] = system: Isolated male Wistar rat epididymal adipocytes; design: method as in PMID 29843022; conditions: 20 μM Zn complex, means ± SDs, three runs; cited from earlier work

Compound: N[C@@H](C[SeH])C(=O)O (racemic) [D,L-selenocysteine]
- Lethality (male ICR mice; oral once daily 30 mg/kg/day (13.9 mg Se/kg/day)): 100%
- Hepatic histology finding (male ICR mice; oral once daily 30 mg/kg/day): vacuolation of centrilobular and peripheral hepatocytes

Compound: Cc1occc(=[Se])c1[O-].Cc1occc(=[Se])c1[O-].[Zn+2] [[Zn(hmps)2], bis(3-hydroxy-2-methyl-4(H)-pyran-4-seleno)Zn]
- Blood glucose level by the end of treatment ([1]; [Zn(hmpt)2] 2.5–10 mg Zn/kg, [Zn(hmps)2] 1.0–5.0 mg Zn/kg): approximately 200 mg/dL
- Water intake on the final day ([1]; control 12.6 ± 1.6 g, p < 0.01 vs. control): 6.9 ± 0.5 g
- Body weight change during treatment ([1]; loss seen day 22 to 25, recovered after dose reduction): Body weight gains
- Area under the blood glucose concentration-time curve (AUC) in OGTT ([2]; 1 g glucose/kg oral, after 28 days treatment, compared with control mice): significantly decreased
- Fasting blood glucose level (0 min of OGTT) ([2]; ob/ob mice after 28 days oral treatment, 12-h fast, control 237 ± 52 mg/dL): 172 ± 38 mg/dL
- ALP (plasma) ([3]; mouse, in vivo, po): 550 ± 89 **^,##,†† U/L
- ALT (plasma) ([3]; mouse, in vivo, po): 355 ± 138 **^,##,†† U/L
- AST (plasma) ([3]; mouse, in vivo, po): 200 ± 55 **^,##,†† U/L
- BUN (plasma) ([3]; mouse, in vivo, po): 24 ± 3 **^,## mg/dL
- Insulin (fasting plasma) ([3]; ob/ob mice after 28 days oral treatment, control 2.2 ± 1.0): 1.4 ± 0.6 ng/mL
- HbA1c ([3]; ob/ob mice after 28 days oral treatment, control 7.9 ± 0.8): 6.7 ± 0.4 **^,## %
- Adiponectin (plasma) ([3]; ob/ob mice after 28 days oral treatment, control 8.2 ± 1.1): 9.0 ± 0.8 µg/mL
- TG (plasma) ([3]; ob/ob mice after 28 days oral treatment, control 83 ± 16): 87 ± 11 mg/dL
- T-CHO (plasma) ([3]; ob/ob mice after 28 days oral treatment, control 195 ± 16): 186 ± 16 mg/dL
- Δ[Zn]/Δ[Se] molar ratio, bone ([4]; [Zn(L)] = 1.0, [Zn(L)2] = 0.5): 6.9
- Δ[Zn]/Δ[Se] molar ratio, kidney ([4]; [Zn(L)] = 1.0, [Zn(L)2] = 0.5): 0.25
- Δ[Zn]/Δ[Se] molar ratio, liver ([4]; [Zn(L)] = 1.0, [Zn(L)2] = 0.5): 0.61
- Δ[Zn]/Δ[Se] molar ratio, pancreas ([4]; [Zn(L)] = 1.0, [Zn(L)2] = 0.5): 27
- Se concentration, bone ([4]; dry tissue, ob/ob mice after 28 days oral treatment, control 0.5 ± 0.2): 1.9 ± 0.6 µg/g
- Se concentration, muscle ([4]; dry tissue, ob/ob mice after 28 days oral treatment, control 1.3 ± 0.4): 2.5 ± 0.4 **^,#,†† µg/g
- Se concentration, liver ([4]; dry tissue, ob/ob mice after 28 days oral treatment, control 2.1 ± 0.3): 5.1 ± 0.6 µg/g
- Se concentration, pancreas ([4]; dry tissue, ob/ob mice after 28 days oral treatment, control 2.3 ± 0.6): 3.4 ± 0.8 **^,##,†† µg/g
- Se concentration, spleen ([4]; dry tissue, ob/ob mice after 28 days oral treatment, control 2.7 ± 0.8): 9.1 ± 2.4 **^,##,†† µg/g
- Se concentration, kidney ([4]; dry tissue, ob/ob mice after 28 days oral treatment, control 6.4 ± 0.2): 12.7 ± 2.0 **^,##,†† µg/g
- Zn concentration, liver ([4]; dry tissue, ob/ob mice after 28 days oral treatment, control 44 ± 5): 46 ± 6 ^##^,† µg/g
- Zn concentration, muscle ([4]; dry tissue, ob/ob mice after 28 days oral treatment, control 47 ±10): 41 ± 2 µg/g
- Zn concentration, kidney ([4]; dry tissue, ob/ob mice after 28 days oral treatment, control 67 ± 3): 68 ± 4 µg/g
- Zn concentration, spleen ([4]; dry tissue, ob/ob mice after 28 days oral treatment, control 100 ± 17): 95 ± 12 µg/g
- Zn concentration, pancreas ([4]; dry tissue, ob/ob mice after 28 days oral treatment, control 133 ± 19): 158 ± 28 µg/g
- Zn concentration, bone ([4]; dry tissue, ob/ob mice after 28 days oral treatment, control 154 ± 7): 162 ± 10 *^,^†† µg/g
- Δ[Se], bone ([4]; mouse, in vivo, po): 18 nmol/g
- Δ[Se], kidney ([4]; mouse, in vivo, po): 81 nmol/g
- Δ[Se], liver ([4]; mouse, in vivo, po): 38 nmol/g
- Δ[Se], pancreas ([4]; mouse, in vivo, po): 14 nmol/g
- Δ[Se], plasma ([4]; mouse, in vivo, po): 6 nmol/g
- Δ[Zn], bone ([4]; mouse, in vivo, po): 124 nmol/g
- Δ[Zn], kidney ([4]; mouse, in vivo, po): 20 nmol/g
- Δ[Zn], liver ([4]; mouse, in vivo, po): 23 nmol/g
- Δ[Zn], pancreas ([4]; mouse, in vivo, po): 375 nmol/g
- Δ[Zn], plasma ([4]; mouse, in vivo, po): 6 nmol/g
- Se concentration, plasma ([4]; ob/ob mice after 28 days oral treatment, control 0.6 ± 0.1): 1.1 ± 0.2 **^,##,†† µg/mL
- Zn concentration, plasma ([4]; ob/ob mice after 28 days oral treatment, control 2.1 ± 0.1): 2.5 ± 0.2 **^,## µg/mL
- Pancreatic islet numbers per section ([5]; among normal, control and treated mice): not significantly changed
- Glycogen and fat deposition area ratio in the liver ([5]; between control and treated mice): no significant differences
- Pancreatic islet area ratio and size ([5]; compared with normal mice): significantly increased
- Glycogen content in the liver ([6]; control 0.08 ± 0.04): 0.04 ± 0.01 mg/g liver
- TG content in the liver ([6]; control 437 ± 139): 443 ± 42 mg/g liver
- Glucose Uptake [7]: 138 ± 6 µg/10^6 Cells
